Like-named read-outs stand apart in the source and are kept apart here. Where a SMILES comes first, the peptide text is derived from it. Bridges are numbered along the chain shown (N, C = ends). [ ]: non-standard residue; d: D form. The star is where a group is joined. hPhe(3,5-F2-4-CF3) = N[C@@H](CCc1cc(F)c(C(F)(F)F)c(F)c1)C(=O)O; hPhe(3-Cl-4-CF3) = N[C@@H](CCc1ccc(C(F)(F)F)c(Cl)c1)C(=O)O; NPrPhe(4-CF3) = CCCN[C@@H](Cc1ccc(C(F)(F)F)cc1)C(=O)O; NMeGly(cPent) = CN[C@H](C(=O)O)C1CCCC1; Pro(4,4-F2) = O=C(O)[C@@H]1CC(F)(F)CN1; NMeD = CN[C@@H](CC(=O)O)C(=O)O; Ac4c(3-oxa) = NC1(C(=O)O)COC1; NMeL = CN[C@@H](CC(C)C)C(=O)O; Morpholide = C1CN(*)CCO1; NMeA = CN[C@@H](C)C(=O)O; Ac5c = NC1(C(=O)O)CCCC1; Aze = O=C(O)[C@@H]1CCN1; Ac4c = NC1(C(=O)O)CCC1; Sar = CNCC(=O)O
Experiments:
[1] = target: GDP-bound KRAS wild-type protein (Homo sapiens, UniProt P01116); assay: Binding to KRAS by surface plasmon resonance (SPR), Single Cycle Kinetics; details: GDP-bound KRAS wild-type protein, read-out: KRAS KD
[2] = target: GDP-bound NRAS wild-type protein (Homo sapiens, UniProt P01111); assay: Binding to NRAS by surface plasmon resonance (SPR), Single Cycle Kinetics; details: for NRAS/KRAS (ratio of KD value with respect to NRAS to KD value with respect to KRAS) / NRAS/KRAS (ratio of KD value for NRAS to KD value for KRAS): SPR, GDP-bound NRAS wild-type protein vs GDP-bound KRAS wild-type protein; for NRAS/KRAS (ratio of KD value with respect to GDP-bound NRAS wild-type protein to KD value with respect to KRAS): SPR KD ratio NRAS/KRAS, class symbols
[3] = target: GDP-bound HRAS wild-type protein (Homo sapiens, UniProt P01112); assay: Binding to HRAS by surface plasmon resonance (SPR), Single Cycle Kinetics; details: for HRAS/KRAS (ratio of KD value with respect to HRAS to KD value with respect to KRAS) / HRAS/KRAS (ratio of KD value for HRAS to KD value for KRAS): SPR, GDP-bound HRAS wild-type protein vs GDP-bound KRAS wild-type protein; for HRAS/KRAS (ratio of KD value with respect to GDP-bound HRAS wild-type protein to KD value with respect to KRAS): SPR KD ratio HRAS/KRAS, class symbols
[4] = SPR Single Cycle Kinetics, 1:1 binding model

Sequence of GDP-bound KRAS wild-type protein (P01116 whole entry): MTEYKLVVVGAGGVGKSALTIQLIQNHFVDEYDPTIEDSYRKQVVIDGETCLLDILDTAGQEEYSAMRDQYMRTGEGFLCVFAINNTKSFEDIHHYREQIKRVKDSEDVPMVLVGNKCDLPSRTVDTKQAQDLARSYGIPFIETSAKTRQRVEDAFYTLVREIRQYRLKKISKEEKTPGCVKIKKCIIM
Sequence of GDP-bound NRAS wild-type protein (P01111 whole entry): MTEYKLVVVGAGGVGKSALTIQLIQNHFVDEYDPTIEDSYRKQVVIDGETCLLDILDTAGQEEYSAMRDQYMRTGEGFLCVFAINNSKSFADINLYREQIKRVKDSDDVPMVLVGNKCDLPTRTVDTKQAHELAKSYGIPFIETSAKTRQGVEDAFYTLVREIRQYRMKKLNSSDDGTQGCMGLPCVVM
Sequence of GDP-bound HRAS wild-type protein (P01112 whole entry): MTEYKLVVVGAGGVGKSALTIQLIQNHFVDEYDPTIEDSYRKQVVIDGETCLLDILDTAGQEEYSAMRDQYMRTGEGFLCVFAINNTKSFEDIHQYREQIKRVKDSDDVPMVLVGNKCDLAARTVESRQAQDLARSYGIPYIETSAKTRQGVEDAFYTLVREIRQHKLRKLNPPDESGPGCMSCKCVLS

Row | Compound | Kd [1, 4] [nM] | Kd ([1]; SPR, Single Cycle Kinetics) [nM] | NRAS/KRAS (ratio of KD value for NRAS to KD value for KRAS) [2] | HRAS/KRAS (ratio of KD value for HRAS to KD value for KRAS) [3] | other results
1 | CC[C@H](C)[C@@H]1NC(=O)[C@H](CC(C)C)N(C)C(=O)C[C@@H](C(=O)N2CCOCC2)N(C)C(=O)[C@H](C2CCCC2)NC(=O)C2(CCCC2)NC(=O)[C@@H]2CCCN2C(=O)[C@H](CCc2cc(F)c(C(F)(F)F)c(F)c2)NC(=O)CN(C)C(=O)[C@H](Cc2ccc(C(F)(F)F)cc2)N2CCCC[C@@H](C2=O)N(C)C(=O)CN(C)C1=O [PP0540] | 17 |  |  |  | NRAS/KRAS (ratio of KD value with respect to NRAS to KD value with respect to KRAS) [2]: B (a compound having 3 or more and less than 10 is denoted as B); HRAS/KRAS (ratio of KD value with respect to HRAS to KD value with respect to KRAS) [3]: B (a compound having 3 or more and less than 10 is denoted as B)
2 | CCC[C@H]1C(=O)N[C@@H]([C@@H](C)CC)C(=O)N(C)CC(=O)N(C)[C@H]2C/C=C\CCN(C2=O)[C@@H](Cc2ccc(C(F)(F)F)cc2)C(=O)N(C)CC(=O)N[C@@H](CCc2cc(F)c(C(F)(F)F)c(F)c2)C(=O)N2C[C@H](OCC)C[C@H]2C(=O)NC2(CCC2)C(=O)N(C)[C@@H](C2CCCC2)C(=O)N(C)[C@H](C(=O)N(C)CCC)CC(=O)N1C [PP1389, (2S,8S,12R,14S,20S,23S,27S,30S,36S,38Z)-20-cyclopentyl-8-[2-[3,5-difluoro-4-(trifluoromethyl)phenyl]ethyl]-12-ethoxy-N,4,19,22,26,32,35-heptamethyl-30-[(1S)-1-methylpropyl]-3,6,9,15,18,21,25,28,31,34,42-undecaoxo-N,27-dipropyl-2-[[4-(trifluoromethyl)phenyl]methyl]spiro[1,4,7,10,16,19,22,26,29,32,35-undecazatricyclo[34.5.1.0^10,14]dotetracont-38-ene-17,1′-cyclobutane]-23-carboxamide] |  |  |  |  | Kd ([1]; SPR, Single Cycle Kinetics, 1:1 binding model): 0.066 nM; NRAS/KRAS (ratio of KD value for NRAS to KD value for KRAS) ([2]; KD ratio class): AA (a compound having 20 or more is denoted as AA); HRAS/KRAS (ratio of KD value for HRAS to KD value for KRAS) ([3]; KD ratio class): A (a compound having 10 or more and less than 20 is denoted as A)
3 | CCC[C@H]1C(=O)N[C@@H]([C@@H](C)CC)C(=O)N(C)CC(=O)N(C)[C@H]2C/C=C\CCN(C2=O)[C@@H](CC2CCC(F)(F)CC2)C(=O)N(C)CC(=O)N[C@@H](CCc2ccc(C(F)(F)F)c(OC)c2)C(=O)N2C[C@H](OCC)C[C@H]2C(=O)N(C)C2(CCC2)C(=O)N(C)[C@@H](C2CCCC2)C(=O)N(C)[C@H](C(=O)N(C)C)CC(=O)N1C [PP2348] |  | 0.34 | A (a compound having 10 or more and less than 20 is denoted as A) | A (a compound having 10 or more and less than 20 is denoted as A) | 
4 | CC[C@H](C)[C@@H]1NC(=O)[C@H](CC(C)C)N(C)C(=O)C[C@@H](C(=O)N2CCOCC2)N(C)C(=O)[C@H](C2CCCC2)N(C)C(=O)C2(CCC2)NC(=O)[C@@H]2C[C@@H](OCC3CCCC3)CN2C(=O)[C@H](CCc2cc(F)c(C(F)(F)F)c(F)c2)NC(=O)CN(C)C(=O)[C@H](Cc2ccc(C(F)(F)F)cc2)N2CCCC[C@@H](C2=O)N(C)C(=O)CN(C)C1=O [PP1001] |  | 0.1 | B (a compound having 3 or more and less than 10 is denoted as B) | B (a compound having 3 or more and less than 10 is denoted as B) | 
5 | CCO[C@@H]1C[C@H]2C(=O)NC3(CCC3)C(=O)N(C)[C@@H](C3CCCC3)C(=O)N(C)[C@H](C(=O)N(C)C)CC(=O)N(C)[C@@H](Cc3ccccc3)C(=O)N[C@@H]([C@@H](C)CC)C(=O)N(C)CC(=O)N(C)[C@H]3C/C=C\CCN(C3=O)[C@@H](Cc3ccc(C(F)(F)F)cc3)C(=O)N(C)CC(=O)N[C@@H](CCc3cc(F)c(C(F)(F)F)c(F)c3)C(=O)N2C1 [PP1116, (2S,8S,12R,14S,20S,23S,27S,30S,36S,38Z)-27-benzyl-20-cyclopentyl-8-[2-[3,5-difluoro-4-(trifluoromethyl)phenyl]ethyl]-12-ethoxy-N,N,4,19,22,26,32,35-octamethyl-30-[(1S)-1-methylpropyl]-3,6,9,15,18,21,25,28,31,34,42-undecaoxo-2-[[4-(trifluoromethyl)phenyl]methyl]spiro[1,4,7,10,16,19,22,26,29,32,35-undecazatricyclo[34.5.1.0^10,14]dotetracont-38-ene-17,1′-cyclobutane]-23-carboxamide] |  | 0.069 | A (a compound having 10 or more and less than 20 is denoted as A) | A (a compound having 10 or more and less than 20 is denoted as A) | 
6 | CCC[C@H]1C(=O)N[C@@H]([C@@H](C)CC)C(=O)N(C)CC(=O)N(C)[C@H]2CCCCN(C2=O)[C@@H](Cc2ccc(C(F)(F)F)cc2)C(=O)N(C)CC(=O)N[C@@H](CCc2cc(F)c(C(F)(F)F)c(F)c2)C(=O)N2C[C@H](OCC)C[C@H]2C(=O)NC2(CCC2)C(=O)N(C)[C@@H](C2CCCC2)C(=O)N(C)[C@H](C(=O)N2CCOCC2)CC(=O)N1C [PP0709] | 0.03 |  |  |  | NRAS/KRAS (ratio of KD value with respect to NRAS to KD value with respect to KRAS) [2]: C (A compound having a KD ratio of 0.1 or more and less than 3 is denoted as C); HRAS/KRAS (ratio of KD value with respect to HRAS to KD value with respect to KRAS) [3]: B (a compound having 3 or more and less than 10 is denoted as B)
7 | CCC[C@H]1C(=O)N[C@@H]([C@@H](C)CC)C(=O)N(C)CC(=O)N(C)[C@H]2C/C=C\CCN(C2=O)[C@@H](Cc2ccc(C)cc2)C(=O)N(C)CC(=O)N[C@@H](CCc2ccc3sc(C)c(C)c3c2)C(=O)N2C[C@H](OCC)C[C@H]2C(=O)NC2(CC(C)(C)C2)C(=O)N(C)[C@@H](C(CC)CC)C(=O)N(C)[C@H](C(=O)N(C)C)CC(=O)N1C [PP2902] | 0.71 |  |  |  | NRAS/KRAS (ratio of KD value with respect to GDP-bound NRAS wild-type protein to KD value with respect to KRAS) [2]: AA (a compound having 20 or more is denoted as AA); HRAS/KRAS (ratio of KD value with respect to GDP-bound HRAS wild-type protein to KD value with respect to KRAS) [3]: A (a compound having 10 or more and less than 20 is denoted as A)
8 | CCO[C@@H]1C[C@H]2C(=O)NC3(CC(C)(C)C3)C(=O)N(C)[C@@H](C(CC)CC)C(=O)N(C)[C@H](C(=O)N3CCCC3)CC(=O)N(C)[C@H]3CCC/C=C/c4ccc(cc4)C[C@@H](C(=O)N(C)CC(=O)N[C@@H](CCc4cc(F)c(C(F)(F)F)c(F)c4)C(=O)N2C1)N1CC/C=C\C[C@@H](C1=O)N(C)C(=O)CN(C)C(=O)[C@H]([C@@H](C)CC)NC3=O [PP2576] | 0.14 |  |  |  | NRAS/KRAS (ratio of KD value with respect to GDP-bound NRAS wild-type protein to KD value with respect to KRAS) [2]: A (a compound having 10 or more and less than 20 is denoted as A); HRAS/KRAS (ratio of KD value with respect to GDP-bound HRAS wild-type protein to KD value with respect to KRAS) [3]: A (a compound having 10 or more and less than 20 is denoted as A)

The next lines start with results.

Row | Kd [1, 4] [nM] | Kd ([1]; SPR, Single Cycle Kinetics) [nM] | Compound | NRAS/KRAS (ratio of KD value for NRAS to KD value for KRAS) [2] | HRAS/KRAS (ratio of KD value for HRAS to KD value for KRAS) [3] | other results
9 | 0.06 |  | CCCN1C(=O)CN(C)C(=O)CN(C)C(=O)[C@H]([C@@H](C)CC)NC(=O)[C@H](CC(C)C)N(C)C(=O)C[C@@H](C(=O)N(C)C)N(C)C(=O)[C@H](C2CCCC2)N(C)C(=O)C2(COC2)NC(=O)[C@@H]2CCCN2C(=O)[C@H](CCc2cc(F)c(C(F)(F)F)c(F)c2)NC(=O)CN(C)C(=O)[C@@H]1Cc1ccc(C(F)(F)F)cc1 [PP0744] ([NMeL]I[Sar][Sar][NPrPhe(4-CF3)][Sar][hPhe(3,5-F2-4-CF3)]P[Ac4c(3-oxa)][NMeGly(cPent)][NMeD]-NMe2; lactam N-11) |  |  | NRAS/KRAS (ratio of KD value with respect to NRAS to KD value with respect to KRAS) [2]: B (a compound having 3 or more and less than 10 is denoted as B); HRAS/KRAS (ratio of KD value with respect to HRAS to KD value with respect to KRAS) [3]: B (a compound having 3 or more and less than 10 is denoted as B)
10 |  | 0.91 | CCO[C@@H]1C[C@H]2C(=O)NC3(CCC3)C(=O)N(C)[C@@H](C3CCCC3)C(=O)N(C)[C@H](C(=O)N(C)C)CC(=O)N(C)[C@@H](Cc3cccc(Cl)c3)C(=O)N[C@@H]([C@@H](C)CC)C(=O)N(C)CC(=O)N(C)[C@H]3CCCCCN(C3=O)[C@@H](Cc3ccc(C(F)(F)F)cc3)C(=O)N(C)CC(=O)N[C@@H](CCc3cc(F)c(C(F)(F)F)c(F)c3)C(=O)N2C1 [PP0939] | B (a compound having 3 or more and less than 10 is denoted as B) | B (a compound having 3 or more and less than 10 is denoted as B) | 
11 | 0.59 |  | CCCN1C(=O)[C@@H]2CCN2C(=O)[C@H](C)N(C)C(=O)[C@H]([C@@H](C)CC)NC(=O)[C@H](CC(C)C)N(C)C(=O)C[C@@H](C(=O)N(C)C)NC(=O)[C@H](C2CCCC2)N(C)C(=O)C2(CCC2)NC(=O)[C@@H]2CCCN2C(=O)[C@H](CCc2ccc(C(F)(F)F)c(Cl)c2)NC(=O)CN(C)C(=O)[C@@H]1Cc1ccc(C(F)(F)F)cc1 [PP0380] ([NMeL]I[NMeA][Aze][NPrPhe(4-CF3)][Sar][hPhe(3-Cl-4-CF3)]P[Ac4c][NMeGly(cPent)]D-NMe2; lactam N-11) | C (A compound having a KD ratio of 0.1 or more and less than 3 is denoted as C) | B (a compound having 3 or more and less than 10 is denoted as B) | 
12 | 1.9 |  | CCCN1C(=O)CN(C)C(=O)CNC(=O)[C@H]([C@@H](C)CC)NC(=O)[C@H](CC(C)C)N(C)C(=O)C[C@@H](C(=O)N2CCOCC2)NC(=O)[C@H](C2CCCC2)N(C)C(=O)C2(CCCC2)NC(=O)[C@@H]2CC(F)(F)CN2C(=O)[C@H](CCc2ccc(C(F)(F)F)c(Cl)c2)NC(=O)CN(C)C(=O)[C@@H]1Cc1ccc(C(F)(F)F)cc1 [PP0327] ([NMeL]IG[Sar][NPrPhe(4-CF3)][Sar][hPhe(3-Cl-4-CF3)][Pro(4,4-F2)][Ac5c][NMeGly(cPent)]D-Morpholide; lactam N-11) | B (a compound having 3 or more and less than 10 is denoted as B) | B (a compound having 3 or more and less than 10 is denoted as B) | 

Source: patent US20240158446A1, “CYCLIC COMPOUND HAVING SELECTIVE INHIBITORY ACTION ON KRAS OVER HRAS AND NRAS” (CHUGAI SEIYAKU KABUSHIKI KAISHA, priority 2021, published 2024)
